Assay results reported in ChEMBL document CHEMBL5357068, “Discovery of Novel TLR7 Agonists as Systemic Agent for Combination With aPD1 for Use in Immuno-oncology” (ACS Med Chem Lett, 2024).
Active and inactive are the calls of the source. The rule behind the calls is not given here.

Legend:
[1] = Metabolic stability in human liver microsomes assessed as compound remaining; type: ADME, Microsome; also: time not given here
[2] = Metabolic stability in mouse liver microsomes assessed as compound remaining; type: ADME, Microsome; also: time not given here
[3] = target: Voltage-gated inwardly rectifying potassium channel KCNH2 (Homo sapiens, UniProt Q12809); assay: Inhibition of hERG by patch clamp assay; type: toxicity
Chain of Voltage-gated inwardly rectifying potassium channel KCNH2 (Q12809 whole entry): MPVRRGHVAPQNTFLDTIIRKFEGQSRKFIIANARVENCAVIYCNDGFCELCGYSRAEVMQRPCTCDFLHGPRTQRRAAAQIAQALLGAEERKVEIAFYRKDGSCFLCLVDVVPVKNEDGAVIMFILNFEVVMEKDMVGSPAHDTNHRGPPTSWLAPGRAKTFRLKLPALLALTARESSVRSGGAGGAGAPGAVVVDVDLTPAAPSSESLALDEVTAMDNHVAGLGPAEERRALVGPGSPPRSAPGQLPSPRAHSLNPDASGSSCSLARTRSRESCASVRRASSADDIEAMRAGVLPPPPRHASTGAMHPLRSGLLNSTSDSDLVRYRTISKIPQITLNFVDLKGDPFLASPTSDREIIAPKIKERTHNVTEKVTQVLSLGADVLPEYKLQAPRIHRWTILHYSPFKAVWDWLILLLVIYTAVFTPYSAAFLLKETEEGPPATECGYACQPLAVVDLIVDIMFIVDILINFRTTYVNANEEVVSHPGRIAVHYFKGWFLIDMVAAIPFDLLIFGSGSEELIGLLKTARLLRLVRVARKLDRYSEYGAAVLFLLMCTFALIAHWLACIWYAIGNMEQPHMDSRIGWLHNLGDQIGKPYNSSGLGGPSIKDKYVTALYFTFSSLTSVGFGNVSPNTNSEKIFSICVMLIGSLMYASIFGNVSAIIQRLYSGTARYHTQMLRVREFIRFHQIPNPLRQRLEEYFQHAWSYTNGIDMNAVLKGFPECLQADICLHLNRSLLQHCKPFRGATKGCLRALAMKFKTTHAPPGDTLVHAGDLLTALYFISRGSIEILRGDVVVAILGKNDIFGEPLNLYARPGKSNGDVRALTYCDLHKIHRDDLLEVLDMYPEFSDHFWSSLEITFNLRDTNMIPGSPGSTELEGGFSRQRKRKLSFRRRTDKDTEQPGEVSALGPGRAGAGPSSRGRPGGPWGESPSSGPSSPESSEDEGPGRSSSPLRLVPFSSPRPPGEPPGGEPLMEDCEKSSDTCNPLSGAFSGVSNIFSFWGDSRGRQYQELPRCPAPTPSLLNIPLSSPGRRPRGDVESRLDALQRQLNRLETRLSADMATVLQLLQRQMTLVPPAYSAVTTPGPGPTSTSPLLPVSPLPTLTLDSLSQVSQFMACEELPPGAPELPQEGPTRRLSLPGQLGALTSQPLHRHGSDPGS

[4] = target: T1, Toll-like receptor 7 (Mus musculus, UniProt P58681)
T1 sequence (P58681 whole entry): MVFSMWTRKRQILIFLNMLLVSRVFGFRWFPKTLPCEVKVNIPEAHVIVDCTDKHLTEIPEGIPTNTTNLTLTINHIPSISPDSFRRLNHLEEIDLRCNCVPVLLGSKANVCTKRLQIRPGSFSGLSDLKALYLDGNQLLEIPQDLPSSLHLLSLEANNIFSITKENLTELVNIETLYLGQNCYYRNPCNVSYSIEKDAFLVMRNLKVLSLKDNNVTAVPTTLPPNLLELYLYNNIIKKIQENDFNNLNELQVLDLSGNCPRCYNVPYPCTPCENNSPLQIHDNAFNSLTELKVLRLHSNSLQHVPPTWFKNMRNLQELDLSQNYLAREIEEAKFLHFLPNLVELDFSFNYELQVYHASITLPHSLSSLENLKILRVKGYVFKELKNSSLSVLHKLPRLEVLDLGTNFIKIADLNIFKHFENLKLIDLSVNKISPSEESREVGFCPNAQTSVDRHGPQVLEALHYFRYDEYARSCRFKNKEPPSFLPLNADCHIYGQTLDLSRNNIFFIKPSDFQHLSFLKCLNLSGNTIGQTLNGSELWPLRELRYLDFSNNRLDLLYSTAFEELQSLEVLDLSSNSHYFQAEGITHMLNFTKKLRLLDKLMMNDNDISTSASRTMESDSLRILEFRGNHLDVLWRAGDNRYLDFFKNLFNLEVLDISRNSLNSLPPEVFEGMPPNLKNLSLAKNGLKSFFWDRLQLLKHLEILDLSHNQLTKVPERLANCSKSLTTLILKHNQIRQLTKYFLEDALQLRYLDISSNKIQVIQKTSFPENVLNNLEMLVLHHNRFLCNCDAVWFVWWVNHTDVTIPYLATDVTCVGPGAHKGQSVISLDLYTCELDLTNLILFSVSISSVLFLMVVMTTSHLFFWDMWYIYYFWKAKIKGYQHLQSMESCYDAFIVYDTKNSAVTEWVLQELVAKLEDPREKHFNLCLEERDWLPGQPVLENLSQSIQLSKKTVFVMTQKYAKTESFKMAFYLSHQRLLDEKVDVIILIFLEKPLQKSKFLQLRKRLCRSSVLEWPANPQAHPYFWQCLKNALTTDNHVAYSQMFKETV

[5] = in vitro; settings: PHA-activated T cells
[6] = target: T2, Toll-like receptor 8 (Homo sapiens, UniProt Q9NR97); assay: Agonist activity at human TLR8
T2 sequence (Q9NR97 whole entry): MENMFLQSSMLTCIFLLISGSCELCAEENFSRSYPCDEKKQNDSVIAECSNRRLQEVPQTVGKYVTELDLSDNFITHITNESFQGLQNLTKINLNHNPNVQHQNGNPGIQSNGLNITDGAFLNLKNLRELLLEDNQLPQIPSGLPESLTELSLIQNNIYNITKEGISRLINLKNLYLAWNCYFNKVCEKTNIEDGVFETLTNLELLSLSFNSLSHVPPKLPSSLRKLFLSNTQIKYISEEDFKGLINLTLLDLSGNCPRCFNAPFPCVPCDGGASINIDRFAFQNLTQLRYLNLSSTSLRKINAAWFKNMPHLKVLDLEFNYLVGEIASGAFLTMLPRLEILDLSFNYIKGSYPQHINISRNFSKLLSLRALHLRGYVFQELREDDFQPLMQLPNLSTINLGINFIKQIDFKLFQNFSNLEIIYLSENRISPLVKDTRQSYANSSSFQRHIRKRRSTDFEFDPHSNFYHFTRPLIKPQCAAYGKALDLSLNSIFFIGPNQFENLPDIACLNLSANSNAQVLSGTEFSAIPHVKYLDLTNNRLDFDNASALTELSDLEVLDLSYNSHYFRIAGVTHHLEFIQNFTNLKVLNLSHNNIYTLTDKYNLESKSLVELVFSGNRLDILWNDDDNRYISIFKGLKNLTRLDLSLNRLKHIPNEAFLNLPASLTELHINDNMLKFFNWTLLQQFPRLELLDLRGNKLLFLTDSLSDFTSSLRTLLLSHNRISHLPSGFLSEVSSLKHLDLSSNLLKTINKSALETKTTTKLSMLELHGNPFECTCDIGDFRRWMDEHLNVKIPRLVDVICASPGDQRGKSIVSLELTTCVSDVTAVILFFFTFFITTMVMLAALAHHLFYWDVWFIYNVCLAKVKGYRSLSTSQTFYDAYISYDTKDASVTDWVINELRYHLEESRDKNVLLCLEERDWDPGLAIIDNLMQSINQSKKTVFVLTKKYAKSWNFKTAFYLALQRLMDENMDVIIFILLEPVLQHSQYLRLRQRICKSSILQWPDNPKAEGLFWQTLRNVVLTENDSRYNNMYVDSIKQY

[7] = target: T1, Toll-like receptor 7; assay: Agonist activity at mouse TLR7
[8] = target: Cytochrome P450 3A4 (Homo sapiens, UniProt P08684); assay: Inhibition of CYP3A4 (unknown origin) using 7-benzyloxy-4-(trifluoromethyl)-coumarin as substrate preincubated with compound followed by substrate addition at 30 mins; type: ADME
Chain of Cytochrome P450 3A4 (P08684 whole entry): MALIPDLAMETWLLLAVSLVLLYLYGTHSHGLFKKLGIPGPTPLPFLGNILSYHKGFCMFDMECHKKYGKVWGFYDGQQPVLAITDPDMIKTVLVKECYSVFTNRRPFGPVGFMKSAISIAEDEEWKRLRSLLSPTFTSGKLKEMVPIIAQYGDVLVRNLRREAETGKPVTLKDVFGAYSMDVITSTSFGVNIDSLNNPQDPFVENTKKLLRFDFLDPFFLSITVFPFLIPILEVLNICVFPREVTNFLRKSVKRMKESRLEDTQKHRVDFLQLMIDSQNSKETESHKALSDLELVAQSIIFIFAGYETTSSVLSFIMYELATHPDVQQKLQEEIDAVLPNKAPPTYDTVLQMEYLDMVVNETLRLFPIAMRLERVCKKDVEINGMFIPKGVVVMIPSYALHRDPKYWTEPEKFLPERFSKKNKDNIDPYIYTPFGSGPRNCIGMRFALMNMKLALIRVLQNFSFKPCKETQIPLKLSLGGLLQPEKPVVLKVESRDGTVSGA

[9] = target: T3, Toll-like receptor 8 (Homo sapiens) (UniProt Q9NR97); assay: Agonist activity at TLR8 (unknown origin)
T3 sequence (whole entry): T2 sequence (Q9NR97 whole entry)

[10] = target: T4, Toll-like receptor 7 (Homo sapiens, UniProt Q9NYK1)
T4 sequence (Q9NYK1 whole entry): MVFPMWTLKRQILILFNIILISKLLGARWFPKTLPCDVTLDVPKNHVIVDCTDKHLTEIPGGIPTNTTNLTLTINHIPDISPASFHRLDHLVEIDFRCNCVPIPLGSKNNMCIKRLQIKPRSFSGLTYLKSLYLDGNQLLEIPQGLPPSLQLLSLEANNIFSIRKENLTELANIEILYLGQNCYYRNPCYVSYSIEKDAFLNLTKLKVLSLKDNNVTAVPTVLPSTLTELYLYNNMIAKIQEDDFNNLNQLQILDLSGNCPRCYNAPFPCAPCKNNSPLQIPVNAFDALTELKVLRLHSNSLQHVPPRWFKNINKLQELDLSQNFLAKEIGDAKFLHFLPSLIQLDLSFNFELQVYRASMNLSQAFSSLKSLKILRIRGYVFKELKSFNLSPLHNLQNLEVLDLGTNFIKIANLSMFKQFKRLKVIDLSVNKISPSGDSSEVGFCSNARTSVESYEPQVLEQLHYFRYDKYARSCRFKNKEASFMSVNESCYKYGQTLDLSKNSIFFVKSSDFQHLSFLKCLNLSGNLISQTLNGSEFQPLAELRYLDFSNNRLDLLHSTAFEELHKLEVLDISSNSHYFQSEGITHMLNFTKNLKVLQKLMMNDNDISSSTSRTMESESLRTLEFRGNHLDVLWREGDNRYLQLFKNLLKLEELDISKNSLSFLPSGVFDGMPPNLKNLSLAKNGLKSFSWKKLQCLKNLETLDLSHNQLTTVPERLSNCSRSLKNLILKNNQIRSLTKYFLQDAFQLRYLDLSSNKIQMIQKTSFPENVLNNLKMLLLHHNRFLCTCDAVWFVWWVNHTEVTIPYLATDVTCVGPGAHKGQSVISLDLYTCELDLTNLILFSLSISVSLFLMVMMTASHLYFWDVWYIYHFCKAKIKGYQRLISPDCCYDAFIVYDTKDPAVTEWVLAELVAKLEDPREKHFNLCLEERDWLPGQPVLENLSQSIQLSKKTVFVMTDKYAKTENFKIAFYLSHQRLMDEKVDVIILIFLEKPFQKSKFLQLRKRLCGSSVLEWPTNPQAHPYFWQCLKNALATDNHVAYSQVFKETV

Row | SMILES | Stability [1] [%] | Stability [2] [%] | IC50 [3] [µM] | IC50 [5] [µM] | other results
1 | CCCCNc1nc(N)nc2cnn(Cc3ccc(CN4CCNCC4)cc3OC)c12 | 83 | 60 |  |  | 
2 | CCC[C@@H](CCO)Nc1nc(N)nc2cnn(Cc3ccc(CNC4CCOCC4)cc3)c12 | 90 | 91 | > 50 | > 25 | EC50 [4]: > 5 µM
3 | CCCCOc1nc(N)nc2cnn(Cc3ccc(CNC4CCOCC4)cc3OC)c12 |  |  |  | > 25 | IC50 [4]: > 5 µM
4 | CCC[C@@H](CCNC(C)=O)Nc1nc(N)nc2cnn(Cc3ccc(CNC4CCOCC4)cc3OC)c12 | 93 | 91 |  | > 25 | 
5 | CCC[C@@H](CCO)Nc1nc(N)nc2cnn(Cc3ccc(CNC4CCOCC4)cc3F)c12 | 66 | 91 | > 50 | > 25 | 
6 | CCCCNc1nc(N)nc2cnn(Cc3ccc(CNC4CCC4)cc3OC)c12 | 41 | 2 | 18.8 | 16 | EC50 [6]: > 5 µM; EC50 [7]: 0.121 µM; IC50 [8]: 6.65 µM
7 | COc1cc(CNC2CCOCC2)ccc1Cn1ncc2nc(N)nc(N[C@H](CCO)C(C)C)c21 | 80 | 63 | > 50 | > 25 | 
8 | CCCCNc1nc(N)nc2cnn(Cc3ccc(CN4CC5CC4CN5)cc3OC)c12 (stereo not given) | 90 | 10 |  |  | 
9 | CCCCNc1nc(N)nc2cnn(Cc3ccc(CN4CC5(CNC5)C4)cc3OC)c12 | 100 | 100 |  |  | 
10 | CCCCNc1nc(N)nc2cnn(Cc3ccc(CNC4CCOCC4)cc3OC)c12 | 68 | 25 |  | 22 | EC50 [4]: 0.453 µM
11 | CC[C@@H](CCO)Nc1nc(N)nc2cnn(Cc3ccc(CNC4CCOCC4)cc3OC)c12 | 83 | 84 | > 50 | > 25 | IC50 [4]: 1.25 µM
12 | CCCCNc1nc(N)nc2cnn(Cc3ccc(C(=O)NC4CCOCC4)cc3OC)c12 | 68 | 62 |  |  | 
13 | CCCCNc1nc(N)nc2cnn(Cc3ccc(CNCc4ccncc4)cc3OC)c12 | 1 | 3 |  |  | 
14 | CCC[C@@H](CCO)Nc1nc(N)nc2cnn(Cc3ncc(CNC4CCOCC4)cc3OC)c12 | 78 | 93 | 6 | > 25 | 
15 | CCCCNc1nc(N)nc2cnn(Cc3ccc(CN4CCOCC4)cc3OC)c12 | 20 | 15 |  |  | 
16 | CCC[C@@H](CCO)Nc1nc(N)nc2cnn(Cc3ccc(CNC4CCOCC4)cc3OC(F)F)c12 | 51 | 55 | 30.4 | 7 | 
17 | CCC[C@@H](CCO)Nc1nc(N)nc2cnn(Cc3ccc(CNC4CCOCC4)nc3)c12 | 100 | 91 | > 50 | > 25 | Activity [9]: inactive; EC50 [4]: > 5 µM
18 | CCC[C@@H](CO)Nc1nc(N)nc2cnn(Cc3ccc(CNC4CCOCC4)cc3OC)c12 | 90 | 77 | > 50 | > 25 | 
19 | CCCCNc1nc(N)nc2cnn(Cc3ccc(Cn4ccnc4)cc3OC)c12 | 1 | 26 |  |  | 
20 | CCCCNc1nc(N)nc2cnn(Cc3ccc(CNC4COC4)cc3OC)c12 | 55 | 46 |  |  | 
21 | COc1cc(CNC2CCOCC2)ccc1Cn1ncc2nc(N)nc(N[C@H](CCO)C3CC3)c21 | 9 | 87 | > 50 | > 25 | 
22 | CCCCN(C)c1nc(N)nc2cnn(Cc3ccc(CNC4CCOCC4)cc3OC)c12 | 57 | 11 | > 50 | > 25 | IC50 [4]: > 5 µM
23 | CCCCNc1nc(N)nc2cnn(Cc3ccc(CN4CCCCC4)cc3OC)c12 | 33 | 2 |  |  | EC50 [4]: 0.225 µM
24 | CCC[C@@H](C)Nc1nc(N)nc2cnn(Cc3ccc(CNC4CCOCC4)cc3OC)c12 | 70 | 30 | 30.4 | 24.7 | 
25 | COc1cc(CNC2CCOCC2)ccc1Cn1ncc2nc(N)nc(N[C@@H](C)CCO)c21 | 89 | 100 | > 50 | > 25 | IC50 [4]: > 5 µM
26 | CCC[C@@H](CCO)Nc1nc(N)nc2cnn(Cc3cnc(CNC4CCOCC4)cc3OC)c12 | 81 | 87 | > 50 | > 25 | 
27 | CCCCNc1nc(N)nc2cnn(Cc3ccccc3OC)c12 |  |  |  |  | EC50 [10]: 0.384 µM
28 | CCCCNc1nc(N)nc2ncn(Cc3ccccc3)c12 |  |  |  |  | EC50 [10]: > 5 µM
29 | CCC[C@@H](CCO)Nc1nc(N)nc2cnn(Cc3ccc(CNC4CCOCC4)nc3OC)c12 |  |  |  | > 25 | 
30 | CCC[C@@H](CCO)Nc1nc(N)nc2cnn(Cc3ccc(CNC4CCOCC4)c4cccnc34)c12 | 56 | 56 | > 50 | > 25 | 
